Entries after “also recorded” stand apart in the source; their conditions may differ.
B1: Interferon-gamma (protein, listed as Homo sapiens)
chain: MKYTSYILAFQLCIVLGSLGCYCQDPYVKEAENLKKYFNAGHSDVADNGTLFLGILKNWKEESDRKIMQSQIVSFYFKLFKNFKDDQSIQKSVETIKEDMNVKFFNSNKKKRDDFEKLTNYSVTDLNVQRKAIHELIQVMAELSPAAKTGKRKRSQMLFRGRRASQ

Assays:
Assay type in all cases: cell-based, rat
[1] = system: CA3 pyramidal neuron spontaneous activity; assay: Spontaneous CA3 pyramidal neuron spiking / bursting in slice cultures
Experimental: FIGS. 12a-12e IGF-1 increased spontaneous neuronal spiking activity. (FIG. 12a) Exemplary recording of unstimulated control CA3 pyramidal layer spontaneous electrophysiological activity. (FIG. 12b) Exemplary recording of 3-day IGF-1-exposed CA3 pyramidal layer spontaneous electrophysiological activity. […] Seven day treatments consisted of IGF-1 exposure for only 12 hours daily. Comparisons between groups made via ANOVA plus Holm-Sidak post hoc testing.

[2] = system: OS in microglia and astrocytes of hippocampal slice cultures; assay: Cell-specific OS from SD (CellROX, confocal microscopy); conditions: IGF-1 100 ng/mL for three days
Source text: FIG. 13 Oxidative stress from SD preferentially rises in astrocytes and microglia, with the latter effect mitigated by IGF-1. The inventors have recently shown that spreading depression (SD), the most likely cause of migraine aura and perhaps migraine (Lauritzen and Kraig, 2005), occurs with increased oxidative stress (OS) and that OS, in turn, increases SD susceptibility (Grinberg et al., 2012). Reactive oxygen and nitrogen species that cause OS have both autocrine and paracrine signaling capacities that can affect SD susceptibility by altering excitability (Kishida and Klann, 2007). Accordingly, the inventors looked for the cellular origin of OS from SD. Here the inventors used hippocampal slice cultures (HSC) to probe for cell-specific changes in OS from SD. SD was induced trans-synaptically in rat HSCs using bipolar electrical stimuli at the dentate gyrus (Pusic et al., 2011). Six SDs were induced every 7-9 min over an hr, followed by 24 hr incubation in CellROX™, a fixable fluorogenic probe for measuring OS (Grinberg et al., 2012). HSCs were then fixed in 10% buffered formalin phosphate. Other fixatives (PLP, 4% paraformaldehyde) prevented detection of OS change. Tissue was then labeled for neurons (anti-NeuN), oligodendrocytes (anti-RIP), astrocytes (anti-GFAP), or for microglia (isolectin GS-IB4). […]

[3] = system: myelin basic protein (MBP); assay: Myelin basic protein (MBP) Western blot in hippocampal slice cultures
Experimental: FIGS. 14A-14C. Reduced myelin basic protein (MBP) from SD depends on IFN-γ/T-cell activation and sphingomylinase. […] Thus, confirming involvement of T cells.
FIGS. 15A-15C. Physiological and transient elevation [i.e., phasic (see FIG. 1)] of IFN-γ triggers completely opposite effects. Transient (i.e., 500 U/mL×12 hours; all groups n≥5) exposure of hippocampal slice cultures was nutritive when assessed seven days later.

glutathione = assay: Slice culture glutathione by Thiol Tracker; conditions: pulsed exposure to IFN-γ or exosomes from IFN-γ-pulsed slice cultures
Source text: FIGS. 17A-17B. Detection of an IFN-γ-induced rise in slice culture glutathione using Thiol Tracker™, a fluorescent indicator of glutathione. […] (FIG. 17B) Furthermore, this increase is significant (p<0.001; n≥5/group) and can be mimicked by exposure to exosomes isolated from slice cultures activated by pulsed-exposure to IFN-γ.
Since stimulated immune cells release exosomes that are capable of reducing OS in recipient cells, the inventors next tested whether IFN-γ stimulated slice cultures (and possibly their microglia) to release exosomes that mimicked the effects of IFN-γ. […] IFN-γ, when pulsed onto slice cultures for 12 hours triggers the release of nutritive exosomes that mimic the effect of pulsed exposure to IFN-γ (16, 17). Since pulsed-exposure to IFN-γ reduces OS and glutathione is a naturally occurring inhibitor of neutral sphingomyelinase, the inventors probed for an IFN-γ-induced rise in slice culture glutathione using Thiol Tracker™, a fluorescent indicator of glutathione (FIG. 17).

| Molecule | spontaneous CA3 pyramidal neuron bursting versus control ([1]; 3-day IGF-1 treatment) | spontaneous CA3 pyramidal neuron bursting versus control ([1]; 7-day IGF-1 treatment, 12 hours daily) | spontaneous CA3 pyramidal neuron spiking versus control ([1]; acute IGF-1 treatment) | OS from SD in microglia [2] | astrocytic OS from SD [2] | MBP levels ([3]; IFN-γ with co-administration of TNF-α (100 ng/mL)) | MBP levels ([3]; chronically applied IFN-γ 500 U/mL × 24 hours) | MBP versus baseline ([3]; transient (pulsed) IFN-γ 500 U/mL × 12 hours, assessed seven days later) | slice culture / microglial glutathione (glutathione) |
| --- | --- | --- | --- | --- | --- | --- | --- | --- | --- |
| Insulin-like growth factor 1 [IGF-1] | increase in spontaneous CA3 pyramidal neuron bursting | increase in spontaneous CA3 pyramidal neuron bursting | increase in spontaneous CA3 pyramidal neuron spiking | decreased | unchanged |  |  |  |  |
| B1 |  |  |  |  |  | further decline in MBP | reduce MBP levels | MBP rises above baseline; also recorded: increased above baseline | selectively increases microglial glutathione |

Reference: patent US10391150B2, “Treatments for migraine and related disorders” (The University of Chicago, priority 2011, dated 2019)
